In ChEMBL document CHEMBL5532678, “Comprehensive Insights that Targeting PIM for Cancer Therapy: Prospects and Obstacles” (J Med Chem, 2024) one finds IC50 data, which are given here for 17 compounds.

The target of assay [1] is T1, Serine/threonine-protein kinase pim-1 (Homo sapiens, UniProt P11309). Put plainly: Inhibition of human PIM1 using KKRNRTLTK as substrate in presence of [gamma-33P]-ATP by hotspot kinase assay.
Assay [2] addresses T1, Serine/threonine-protein kinase pim-1. The assay is described as follows: Inhibition of human recombinant PIM1.
The target of assay [3] is T2, Prostaglandin G/H synthase 2 (Homo sapiens, UniProt P35354).
T2 sequence (P35354 whole entry): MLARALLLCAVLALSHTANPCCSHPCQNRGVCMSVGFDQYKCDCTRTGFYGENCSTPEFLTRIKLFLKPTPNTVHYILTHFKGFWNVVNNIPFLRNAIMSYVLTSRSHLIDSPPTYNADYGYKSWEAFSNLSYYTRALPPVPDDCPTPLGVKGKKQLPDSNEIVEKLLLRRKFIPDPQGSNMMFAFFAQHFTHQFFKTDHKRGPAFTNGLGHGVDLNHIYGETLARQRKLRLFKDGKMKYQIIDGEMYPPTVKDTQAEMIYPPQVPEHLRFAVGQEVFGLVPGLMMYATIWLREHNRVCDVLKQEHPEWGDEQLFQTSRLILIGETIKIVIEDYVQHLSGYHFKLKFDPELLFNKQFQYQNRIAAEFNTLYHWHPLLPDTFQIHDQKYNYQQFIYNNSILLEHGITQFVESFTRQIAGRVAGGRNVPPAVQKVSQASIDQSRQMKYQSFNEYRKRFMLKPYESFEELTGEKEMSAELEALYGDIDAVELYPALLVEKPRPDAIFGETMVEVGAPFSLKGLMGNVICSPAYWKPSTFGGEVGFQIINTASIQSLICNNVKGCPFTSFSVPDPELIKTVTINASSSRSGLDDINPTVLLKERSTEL
The assay is described as follows: Inhibition of COX2 (unknown origin) fluorescence based analysis.

Assay [4] deals with T3, Serine/threonine-protein kinase pim-2 (Homo sapiens, UniProt Q9P1W9). Put plainly: Inhibition of N-terminal GST-tagged full length human PIM2 (1 to 311 residues) expressed in baculovirus expression system using S6K2 peptide as substrate at 1 uM in presence of ATP by Mobility shift assay.
The target of assay [5] is T4, Polyunsaturated fatty acid 5-lipoxygenase (Homo sapiens, UniProt P09917).
T4 sequence (P09917 whole entry): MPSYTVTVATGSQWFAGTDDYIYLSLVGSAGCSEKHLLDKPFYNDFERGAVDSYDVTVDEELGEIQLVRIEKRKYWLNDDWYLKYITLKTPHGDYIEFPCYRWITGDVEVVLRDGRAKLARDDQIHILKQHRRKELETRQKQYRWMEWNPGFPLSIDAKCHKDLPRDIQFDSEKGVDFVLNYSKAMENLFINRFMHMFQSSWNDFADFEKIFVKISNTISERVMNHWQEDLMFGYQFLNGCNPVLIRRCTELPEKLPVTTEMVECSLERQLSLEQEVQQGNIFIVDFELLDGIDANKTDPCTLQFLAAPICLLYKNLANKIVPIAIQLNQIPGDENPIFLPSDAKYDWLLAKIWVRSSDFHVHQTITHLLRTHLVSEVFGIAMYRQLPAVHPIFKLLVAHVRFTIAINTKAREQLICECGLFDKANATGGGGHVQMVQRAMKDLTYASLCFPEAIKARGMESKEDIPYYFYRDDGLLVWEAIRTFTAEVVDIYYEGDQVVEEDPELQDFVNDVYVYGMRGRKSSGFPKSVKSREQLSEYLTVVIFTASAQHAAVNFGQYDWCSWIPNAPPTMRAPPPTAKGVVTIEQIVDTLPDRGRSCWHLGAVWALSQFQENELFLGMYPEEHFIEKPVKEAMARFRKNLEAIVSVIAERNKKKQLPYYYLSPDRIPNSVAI
The assay is described as follows: Inhibition of 5-LOX in human PMNL cells. It counts as cell-based.

Assay [6] has as its target Prostaglandin G/H synthase 1 (Homo sapiens, UniProt P23219). Put plainly: Inhibition of COX1 (unknown origin) fluorescence based analysis.
Assay [7] relates to HepG2. Put plainly: Antiproliferative activity against human HepG2 cells assessed as inhibition of cell growth incubated for 72 hrs by MTT assay. The note with it: HepG2, 72 h. It counts as functional, cell-based.
Assay [8] concerns PC-3. The assay is described as follows: Anticancer activity against human PC-3 cells assessed as inhibition of cell growth incubated for 24 hrs by MTT assay. It counts as functional, cell-based. The note with it: PC-3, 24 h. On the technique in general: Formazan colour is commonly taken as a measure of viable cells.
For assay [9], the target named is T1, Serine/threonine-protein kinase pim-1. The assay is described as follows: Inhibition of human PIM1 by discoverX kinome scan assay.
In assay [10] the test system is MCF7. Put plainly: Antiproliferative activity against human MCF7 cells assessed as reduction in cell growth incubated for 48 hrs by MTT assay. It counts as functional, cell-based. The note with it: MCF7, 48 h.
Assay [11] concerns the target T1, Serine/threonine-protein kinase pim-1.
The target of assay [12] is T5, Serine/threonine-protein kinase pim-3 (Homo sapiens, UniProt Q86V86). Put plainly: Inhibition of N-terminal GST-tagged full length human PIM3 (1 to 326 residues) expressed in baculovirus expression system using S6K2 peptide as substrate at 1 uM in presence of ATP by Mobility shift assay.
Assay [13] addresses T3, Serine/threonine-protein kinase pim-2. Put plainly: Inhibition of human full length-His6 tagged PIM2 (1 to 311 residues) expressed in Escherichia coli BL21 (DE3) assessed as inhibition constant using RSRHSSYPAGT as peptide substrate incubated for 10 mins in presence of [gamma-32P]ATP by radiometric scintillation assay.
Assay [14] has as its target T1, Serine/threonine-protein kinase pim-1. The assay is described as follows: Inhibition of human full length-His6 tagged PIM1 (1 to 312 residues) expressed in Escherichia coli BL21 (DE3) using RSRHSSYPAGT as peptide substrate incubated for 10 mins in presence of [gamma-32P]ATP by radiometric scintillation assay.
Assay [15] has as its target T3, Serine/threonine-protein kinase pim-2.
Assay [16] addresses T5, Serine/threonine-protein kinase pim-3.
The target of assay [17] is Dual specificity protein kinase CLK1 (Homo sapiens, UniProt P49759). The assay is described as follows: Inhibition of CLK1 (unknown origin) using GRSRSRSRSRSRSRS as substrate incubated for 15 mins in presence of ATP by gamma32P-ATP based analysis.
For assay [18], the target named is T3, Serine/threonine-protein kinase pim-2. Put plainly: Inhibition of PIM2 (unknown origin) by FRET based Z-LYTE kinase assay.
Assay [19] deals with T5, Serine/threonine-protein kinase pim-3. The assay is described as follows: Inhibition of PIM3 (unknown origin) by FRET based Z-LYTE kinase assay.
For assay [20], the system named is MCF7. The assay is described as follows: Cytotoxicity against human MCF7 cells assessed as reduction in cell growth incubated for 72 hrs by MTT assay. It counts as functional, cell-based. The note with it: MCF7, 72 h.
For assay [21], the system named is HCT-116. The assay is described as follows: Cytotoxicity against human HCT-116 cells assessed as reduction in cell viability incubated for 72 hrs by MTT assay. The note with it: HCT-116, 72 h. It counts as functional, cell-based.
The test system of assay [22] is MCF7. Put plainly: Cytotoxicity against human MCF7 cells assessed as reduction in cell viability by MTT assay. It counts as functional, cell-based.

Consider `CCc1ccc(NC(=O)c2sc3nc(-c4ccc(OC)c(OC)c4)cc(-c4ccc(O)c(O)c4)c3c2N)cc1`, for which, in [1], the IC50 (commonly the concentration that inhibits the measured activity by half) came out at 9390 nM.
Take `Cc1ccc(C(C)C)c(O)c1/C=N/N=C1NC(=O)C(CC(=O)O)S1` (stereo not given): the IC50 in assay [2] came to 2960 nM; in assay [3], 91 nM; in [4] it was 1380 nM; in assay [5] it was 3540 nM; in assay [6], 9400 nM.
Turning to `N#Cc1c(-c2ccco2)cc(-c2ccc(N3C(=O)c4ccccc4C3=O)cc2)nc1N`, the IC50 in [7] was determined as 31100 nM; in assay [8] it was 33400 nM; in assay [9], 630 nM; in [10], 19700 nM.
As for `NCCN1CCN(CCN2c3ccncc3Oc3ccc(Br)cc32)CC1`, the IC50 in [11] was found to be 0.9 nM.
Consider `COc1ccc(/C=C/C(=O)/C=C2/C(=O)Nc3cc(Br)ccc32)cc1`, for which the IC50 in assay [12] is 300 nM; in assay [13] it was 410 nM; in [14], 370 nM.
In the case of `N#Cc1c(-c2ccccc2O)cc(-c2ccc(N3C(=O)c4ccccc4C3=O)cc2)nc1N`, the IC50 in [7] came to 14600 nM; in [8], 27600 nM; in [9], 9760 nM; in assay [10] it was 13400 nM.
With `Fc1cncc(-c2ccc3[nH]c4ncnc(N[C@H]5CC[C@H](N6CCOCC6)CC5)c4c3c2)c1`, in assay [1], the IC50 was 4.6 nM.
Consider `C[C@@H]1CCCN(c2c(/C=C3\SC(=O)NC3=O)cccc2-c2ccccc2)C1`, for which the IC50 in assay [15] was 5 nM; in assay [16], 3 nM; in assay [11] it was 3 nM.
With `NC(=O)c1c(O)cc(O)c2c1oc1cc(O)ccc12`, in [17], the IC50 turned out to be 26 nM.
`Cc1ccc(-c2cncc(NCCN(C)C)n2)cc1CC1SC(=O)NC1=O` (stereo not given): the IC50 in [18] and in assay [19] was 6 nM each time.
For `N#Cc1c(-c2ccccc2)cc(-c2ccccc2)nc1OCCCC(=O)NO`, in assay [1], the IC50 was determined as 344 nM.
On to `COc1ccc(/C=C/C(=O)CC2(O)C(=O)Nc3cc(Br)ccc32)cc1` (stereo not given), for which the IC50 in assay [12] was 1740 nM; in [13], 2460 nM; in assay [14] it was 1620 nM.
On to `Cc1nc2sc3c(c2c(C)c1Br)NC(c1ccccc1Cl)NC3=O` (stereo not given), for which the IC50 worked out at 23800 nM in [20] and 18600 nM in assay [21].
On to `Cc1nc2sc(C(=O)Nc3ccc(F)c(Cl)c3)c(N)c2c(C)c1Br`, for which the IC50 in [9] was 35700 nM; in assay [22] it was 75900 nM.
Turning to `N#Cc1c(-c2ccccc2)cc(-c2ccccc2)nc1OCCCCC(=O)NO`, the IC50 in assay [1] was 365 nM.
As to `CC(C)n1c(C2CCNCC2)nc2c([N+](=O)[O-])c(Br)c(Br)cc21` [DAPOLSERTIB], the values for the IC50 in [15], in assay [16] and in assay [11] were 2 nM, 3 nM and 2 nM, respectively.
With `CC(C)(O)[C@H]1CC[C@H](Nc2ccc3ncc(-c4cccc(C(F)(F)F)c4)n3n2)CC1` [NUVISERTIB], the IC50 in assay [15] was 239 nM; in assay [16] it was 42 nM; in assay [11], 5 nM.
